Results taken from patent US6706663B2, “Herbicidal 3-heterocyclic substituted benzisothiazole and benzisoxazole compounds” (Wyeth, priority 2000, dated 2004).

Tests used:
[1] = test system: ORYSAT (Rice, Tebonnet); test: Preemergence herbicidal evaluation; format: in vivo, Oryza sativa, (L.) Tebonnet; conditions: preemergence, rated 4-5 weeks after treatment
[2] = test system: TRZAWR (Wheat, Winter, cv Riband); test: Postemergence herbicidal evaluation; format: in vivo, Triticum aestivum
How it was run: (§1)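 Visual 0–9 injury scores versus control plants, covering stand, vigour, malformation, size, chlorosis and general appearance, taken four to five weeks post-spray and averaged over replicate tests. Plants were sprayed at roughly two weeks old and held on greenhouse benches.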

[3] = test system: CASOB (Cassia obtusifolia); test: Preemergence herbicidal evaluation; format: in vivo, L.; conditions: preemergence, rated 4-5 weeks after treatment
How it was run: (§2)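 Steps: mix seeds with potting soil; plant on ~1 inch soil per cup; spray compound in aqueous acetone; hold on greenhouse benches with routine watering; rate 0–9 visually against control at 4–5 weeks.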

[4] = test system: CHEAL (Chenopodium album); test: Preemergence herbicidal evaluation; format: in vivo, L.; conditions: preemergence, rated 4-5 weeks after treatment
How it was run: as §2

[5] = test system: AMBEL (Ambrosia artemisifolia); test: Preemergence herbicidal evaluation; format: in vivo, L.; conditions: preemergence, rated 4-5 weeks after treatment
How it was run: as §2

[6] = test system: ABUTH (Abutilon theophrasti); test: Postemergence herbicidal evaluation; format: in vivo, Medic.
How it was run: as §1

[7] = test system: IPOHE (Ipomoea hederacea); test: Postemergence herbicidal evaluation; format: in vivo, (L.) Jacq.
How it was run: as §1

[8] = test system: ORYSAT (Rice, Tebonnet); test: Postemergence herbicidal evaluation; format: in vivo, Oryza sativa, (L.) Tebonnet
How it was run: as §1

[9] = test system: ECHCG (Echinochloa crus-galli); test: Preemergence herbicidal evaluation; format: in vivo, (L.) Beau; conditions: preemergence, rated 4-5 weeks after treatment
How it was run: as §2

[10] = test system: SETVI (Setaria viridis); test: Preemergence herbicidal evaluation; format: in vivo, (L.) Beau; conditions: preemergence, rated 4-5 weeks after treatment
How it was run: as §2

[11] = test system: GALAP (Galium aparine); test: Preemergence herbicidal evaluation; format: in vivo; conditions: preemergence, rated 4-5 weeks after treatment
How it was run: as §2

[12] = test system: SETVI (Setaria viridis); test: Postemergence herbicidal evaluation; format: in vivo, (L.) Beau
How it was run: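 Ratings use a 0-9 visual scale covering stand, vigor, malformation, size, chlorosis and appearance versus a control, scored 4-5 weeks post-spray. Roughly two-week-old seedlings received about 0.0040-1.000 kg/ha active, applied in 50/50 acetone/water with 0.5% TWEEN 20. Multiple tests per compound were averaged.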

[13] = test system: CYPSE (Cyperus serotinus); test: Flooded paddy, preemergence weed control; format: in vivo, Rottb.; conditions: rated 3-4 weeks after treatment, 0-9 rating scale
How it was run: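 Herbicidal effect was scored visually on a 0–9 scale against an untreated control 3–4 weeks after treatment. Compounds were applied preemergence as 50/50 v/v aqueous/acetone mixtures into flood water (1.5–3 cm deep over silt loam), at roughly 0.0080 to 0.1250 kg/ha active ingredient.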

[14] = test system: GALAP (Galium aparine); test: Postemergence herbicidal evaluation; format: in vivo
How it was run: as §1

[15] = test system: CASOB (Cassia obtusifolia); test: Postemergence herbicidal evaluation; format: in vivo, L.
How it was run: as §1

[16] = test system: CHEAL (Chenopodium album); test: Postemergence herbicidal evaluation; format: in vivo, L.
How it was run: as §1

[17] = test system: AMBEL (Ambrosia artemisifolia); test: Postemergence herbicidal evaluation; format: in vivo, L.
How it was run: as §1

[18] = test system: CYPIR (Cyperus iria); test: Flooded paddy, preemergence weed control; format: in vivo; conditions: rated 3-4 weeks after treatment, 0-9 rating scale
How it was run: (§3)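 Plants were established from seed or propagating organs in flooded silt loam, with the water surface held 1.5 to 3 cm above the soil for the entire experiment. Injury was assessed visually against a control and given a 0-9 score.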

[19] = test system: SAGPY (Sagittaria pygmaea); test: Flooded paddy, preemergence weed control; format: in vivo, L.; conditions: rated 3-4 weeks after treatment, 0-9 rating scale
How it was run: as §3

[20] = test system: MOOVA (Monochoria vaginalis); test: Flooded paddy, preemergence weed control; format: in vivo, Presl.; conditions: rated 3-4 weeks after treatment, 0-9 rating scale
How it was run: as §3

CC1CCOC(c2nsc3ccc(-n4c(=O)cc(C(F)(F)F)n(C)c4=O)cc23)O1 (centres unmarked) [Compound 37, 1-methyl-3-[3-(4-methyl-m-dioxan-2-yl)-1,2-benzisothiazol-5-yl]-6-(trifluoromethyl)uracil]
ORYSAT preemergence herbicidal rating ([1]; Rate 0.0620 kg/ha): 9.0
ORYSAT preemergence herbicidal rating ([1]; Rate 0.1250 kg/ha): 9.0
ORYSAT preemergence herbicidal rating ([1]; Rate 0.2500 kg/ha): 9.0
Postemergence herbicidal rating, TRZAWR ([2]; rate 0.0320 kg/ha): 5.0
Postemergence herbicidal rating, TRZAWR ([2]; rate 0.0620 kg/ha): 7.0
CASOB preemergence herbicidal rating ([3]; Rate 0.0620 kg/ha): 7.0
CASOB preemergence herbicidal rating ([3]; Rate 0.1250 kg/ha): 8.0
CASOB preemergence herbicidal rating ([3]; Rate 0.2500 kg/ha): 9.0
CHEAL preemergence herbicidal rating ([4]; Rate 0.0620 kg/ha): 9.0
CHEAL preemergence herbicidal rating ([4]; Rate 0.1250 kg/ha): 9.0
CHEAL preemergence herbicidal rating ([4]; Rate 0.2500 kg/ha): 9.0
AMBEL preemergence herbicidal rating ([5]; Rate 0.0620 kg/ha): 9.0
AMBEL preemergence herbicidal rating ([5]; Rate 0.1250 kg/ha): 9.0
AMBEL preemergence herbicidal rating ([5]; Rate 0.2500 kg/ha): 9.0
Postemergence herbicidal rating, ABUTH ([6]; rate 0.0320 kg/ha): 9.0
Postemergence herbicidal rating, ABUTH ([6]; rate 0.0620 kg/ha): 9.0
Postemergence herbicidal rating, IPOHE ([7]; rate 0.0320 kg/ha): 9.0
Postemergence herbicidal rating, IPOHE ([7]; rate 0.0620 kg/ha): 9.0
Postemergence herbicidal rating, ORYSAT ([8]; rate 0.0320 kg/ha): 4.5
Postemergence herbicidal rating, ORYSAT ([8]; rate 0.0620 kg/ha): 5.0
ECHCG preemergence herbicidal rating ([9]; Rate 0.0620 kg/ha): 9.0
ECHCG preemergence herbicidal rating ([9]; Rate 0.1250 kg/ha): 9.0
ECHCG preemergence herbicidal rating ([9]; Rate 0.2500 kg/ha): 9.0
SETVI preemergence herbicidal rating ([10]; Rate 0.0620 kg/ha): 9.0
SETVI preemergence herbicidal rating ([10]; Rate 0.1250 kg/ha): 9.0
SETVI preemergence herbicidal rating ([10]; Rate 0.2500 kg/ha): 9.0
GALAP preemergence herbicidal rating ([11]; Rate 0.0620 kg/ha): 5.0
GALAP preemergence herbicidal rating ([11]; Rate 0.1250 kg/ha): 9.0
GALAP preemergence herbicidal rating ([11]; Rate 0.2500 kg/ha): 9.0
Postemergence herbicidal rating, SETVI ([12]; rate 0.0320 kg/ha): 9.0
Postemergence herbicidal rating, SETVI ([12]; rate 0.0620 kg/ha): 9.0
herbicidal rating, CYPSE ([13]; rate 0.0320 kg/ha): 9.0
herbicidal rating, CYPSE ([13]; rate 0.1250 kg/ha): 9.0
Postemergence herbicidal rating, GALAP ([14]; rate 0.0320 kg/ha): 4.0
Postemergence herbicidal rating, GALAP ([14]; rate 0.0620 kg/ha): 4.0
Postemergence herbicidal rating, CASOB ([15]; rate 0.0320 kg/ha): 4.0
Postemergence herbicidal rating, CASOB ([15]; rate 0.0620 kg/ha): 5.0
Postemergence herbicidal rating, CHEAL ([16]; rate 0.0320 kg/ha): 5.0
Postemergence herbicidal rating, CHEAL ([16]; rate 0.0620 kg/ha): 9.0
Postemergence herbicidal rating, AMBEL ([17]; rate 0.0320 kg/ha): 9.0
Postemergence herbicidal rating, AMBEL ([17]; rate 0.0620 kg/ha): 9.0
herbicidal rating, CYPIR ([18]; rate 0.0080 kg/ha): 0.0
herbicidal rating, CYPIR ([18]; rate 0.0320 kg/ha): 9.0
herbicidal rating, CYPIR ([18]; rate 0.1250 kg/ha): 9.0
herbicidal rating, SAGPY ([19]; rate 0.0080 kg/ha): 0.0
herbicidal rating, SAGPY ([19]; rate 0.0320 kg/ha): 7.0
herbicidal rating, SAGPY ([19]; rate 0.1250 kg/ha): 9.0
herbicidal rating, MOOVA ([20]; rate 0.0080 kg/ha): 3.0
herbicidal rating, MOOVA ([20]; rate 0.0320 kg/ha): 9.0

Cc1ccn(-c2nsc3ccc(-n4c(=O)cc(C(F)(F)F)n(C)c4=O)cc23)n1 [Compound 38, 1-methyl-3-[3-(3-methylpyrazol-1-yl)-1,2-benzisothiazol-5-yl]-6-(trifluoromethl)uracil]
ORYSAT preemergence herbicidal rating ([1]; Rate 0.0620 kg/ha): 4.0
ORYSAT preemergence herbicidal rating ([1]; Rate 0.1250 kg/ha): 5.0
ORYSAT preemergence herbicidal rating ([1]; Rate 0.2500 kg/ha): 7.0
Postemergence herbicidal rating, TRZAWR ([2]; rate 0.0320 kg/ha): 3.5
Postemergence herbicidal rating, TRZAWR ([2]; rate 0.0620 kg/ha): 4.0
CASOB preemergence herbicidal rating ([3]; Rate 0.0620 kg/ha): 0.0
CASOB preemergence herbicidal rating ([3]; Rate 0.1250 kg/ha): 0.0
CASOB preemergence herbicidal rating ([3]; Rate 0.2500 kg/ha): 0.0
CHEAL preemergence herbicidal rating ([4]; Rate 0.0620 kg/ha): 9.0
CHEAL preemergence herbicidal rating ([4]; Rate 0.1250 kg/ha): 9.0
CHEAL preemergence herbicidal rating ([4]; Rate 0.2500 kg/ha): 9.0
AMBEL preemergence herbicidal rating ([5]; Rate 0.0620 kg/ha): 0.0
AMBEL preemergence herbicidal rating ([5]; Rate 0.1250 kg/ha): 3.0
AMBEL preemergence herbicidal rating ([5]; Rate 0.2500 kg/ha): 7.0
Postemergence herbicidal rating, ABUTH ([6]; rate 0.0320 kg/ha): 9.0
Postemergence herbicidal rating, ABUTH ([6]; rate 0.0620 kg/ha): 9.0
Postemergence herbicidal rating, IPOHE ([7]; rate 0.0320 kg/ha): 7.0
Postemergence herbicidal rating, IPOHE ([7]; rate 0.0620 kg/ha): 9.0
Postemergence herbicidal rating, ORYSAT ([8]; rate 0.0320 kg/ha): 2.5
Postemergence herbicidal rating, ORYSAT ([8]; rate 0.0620 kg/ha): 3.5
ECHCG preemergence herbicidal rating ([9]; Rate 0.0620 kg/ha): 7.0
ECHCG preemergence herbicidal rating ([9]; Rate 0.1250 kg/ha): 9.0
ECHCG preemergence herbicidal rating ([9]; Rate 0.2500 kg/ha): 9.0
SETVI preemergence herbicidal rating ([10]; Rate 0.0620 kg/ha): 5.0
SETVI preemergence herbicidal rating ([10]; Rate 0.1250 kg/ha): 9.0
SETVI preemergence herbicidal rating ([10]; Rate 0.2500 kg/ha): 9.0
GALAP preemergence herbicidal rating ([11]; Rate 0.0620 kg/ha): 5.0
GALAP preemergence herbicidal rating ([11]; Rate 0.1250 kg/ha): 3.0
GALAP preemergence herbicidal rating ([11]; Rate 0.2500 kg/ha): 5.0
Postemergence herbicidal rating, SETVI ([12]; rate 0.0320 kg/ha): 0.0
Postemergence herbicidal rating, SETVI ([12]; rate 0.0620 kg/ha): 3.0
herbicidal rating, CYPSE ([13]; rate 0.0320 kg/ha): 9.0
herbicidal rating, CYPSE ([13]; rate 0.1250 kg/ha): 9.0
Postemergence herbicidal rating, GALAP ([14]; rate 0.0320 kg/ha): 0.0
Postemergence herbicidal rating, GALAP ([14]; rate 0.0620 kg/ha): 4.0
Postemergence herbicidal rating, CASOB ([15]; rate 0.0320 kg/ha): 0.0
Postemergence herbicidal rating, CASOB ([15]; rate 0.0620 kg/ha): 1.0
Postemergence herbicidal rating, CHEAL ([16]; rate 0.0320 kg/ha): 0.0
Postemergence herbicidal rating, CHEAL ([16]; rate 0.0620 kg/ha): 3.0
Postemergence herbicidal rating, AMBEL ([17]; rate 0.0320 kg/ha): 0.0
Postemergence herbicidal rating, AMBEL ([17]; rate 0.0620 kg/ha): 0.0
herbicidal rating, CYPIR ([18]; rate 0.0080 kg/ha): 3.0
herbicidal rating, CYPIR ([18]; rate 0.0320 kg/ha): 9.0
herbicidal rating, CYPIR ([18]; rate 0.1250 kg/ha): 9.0
herbicidal rating, SAGPY ([19]; rate 0.0080 kg/ha): 0.0
herbicidal rating, SAGPY ([19]; rate 0.0320 kg/ha): 4.5
herbicidal rating, SAGPY ([19]; rate 0.1250 kg/ha): 9.0
herbicidal rating, MOOVA ([20]; rate 0.0080 kg/ha): 3.0
herbicidal rating, MOOVA ([20]; rate 0.0320 kg/ha): 9.0
